# Measurements taken from US20150139987A1, “TREATMENT OF HOMOZYGOUS FAMILIAL HYPERCHOLESTEROLEMIA” (CymaBay Therapeutics, Inc., priority 2013, published 2015).
# Like-named read-outs stand apart in the source and are kept apart here.
# T1: peroxisome proliferator-activated receptor-δ (PPARδ) (Homo sapiens, UniProt Q03181)
# T1 sequence (Q03181 1-441): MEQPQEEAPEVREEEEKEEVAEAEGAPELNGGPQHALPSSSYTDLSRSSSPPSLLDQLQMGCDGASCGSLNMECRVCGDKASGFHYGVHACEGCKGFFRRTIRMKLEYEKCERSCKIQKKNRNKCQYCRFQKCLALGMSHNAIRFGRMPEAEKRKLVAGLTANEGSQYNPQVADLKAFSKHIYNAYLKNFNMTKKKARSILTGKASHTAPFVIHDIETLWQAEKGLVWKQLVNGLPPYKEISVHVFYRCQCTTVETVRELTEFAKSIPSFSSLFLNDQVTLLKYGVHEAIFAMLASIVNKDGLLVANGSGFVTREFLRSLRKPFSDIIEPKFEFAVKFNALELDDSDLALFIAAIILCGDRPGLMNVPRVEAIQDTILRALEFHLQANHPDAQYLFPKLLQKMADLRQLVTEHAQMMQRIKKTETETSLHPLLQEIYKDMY
# T2: PPARα (Homo sapiens, UniProt Q07869)
# T2 sequence (Q07869 1-468): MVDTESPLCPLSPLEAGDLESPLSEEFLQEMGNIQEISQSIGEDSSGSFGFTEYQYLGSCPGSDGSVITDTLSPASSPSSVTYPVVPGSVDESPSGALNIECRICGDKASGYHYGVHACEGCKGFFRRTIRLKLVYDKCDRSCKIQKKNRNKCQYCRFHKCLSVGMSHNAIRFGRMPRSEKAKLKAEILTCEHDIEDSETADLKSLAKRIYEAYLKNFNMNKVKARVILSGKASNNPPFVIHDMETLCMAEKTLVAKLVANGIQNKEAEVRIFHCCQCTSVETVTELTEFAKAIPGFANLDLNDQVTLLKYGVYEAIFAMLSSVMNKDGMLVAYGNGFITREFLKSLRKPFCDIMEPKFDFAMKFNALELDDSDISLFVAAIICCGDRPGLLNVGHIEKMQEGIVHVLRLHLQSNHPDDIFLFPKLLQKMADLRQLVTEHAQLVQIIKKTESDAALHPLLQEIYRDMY
# B1: evolocumab: anti-PCSK9 antibody (antibody, chains of the INN, looked up, V domains shown)
# VH: EVQLVQSGAEVKKPGASVKVSCKASGYTLTSYGISWVRQAPGQGLEWMGWVSFYNGNTNYAQKLQGRGTMTTDPSTSTAYMELRSLRSDDTAVYYCARGYGMDVWGQGTTVTVSS
# VL: ESALTQPASVSGSPGQSITISCTGTSSDVGGYNSVSWYQQHPGKAPKLMIYEVSNRPSGVSNRFSGSKSGNTASLTISGLQAEDEADYYCNSYTSTSMVFGGGTKLTVL
# Tests used:
# [1] = target: T1, peroxisome proliferator-activated receptor-δ (PPARδ); assay: PPARδ agonist potency; assay type: biochemical
# Source text: (§1) PPARδ activation stimulates fatty acid oxidation and utilization, improves plasma lipid and lipoprotein metabolism, glucose utilization, and mitochondrial respiration, and preserves stem cell homeostasis.
# PPARα = target: T2, PPARα; assay: Specificity for PPARδ compared with PPARα; assay type: biochemical
# Source text: as §1
# [2] = system: knockout mice lacking LDLR; assay: Lipid lowering in knockout mice lacking LDLR; assay type: in vivo
# subjects with HoFH = assay: Example 1: study with MBX-8025 in HoFH; assay type: in vivo, human; conditions: MBX-8025 L-lysine dihydrate salt 50, 100, or 200 mg/day
# Method: Subjects are permitted their usual other medications, including lipid-lowering treatments. […] MRIs of the subjects' livers are taken every 4 weeks during the study and 4 weeks after study completion, to determine hepatic fat. At each visit, after a 12-hour fast, blood is drawn and urine collected; and a standard metabolic panel, complete blood count, and standard urinalysis are performed. Blood is analyzed for TC, HDL-C, LDL-C, VLDL-C, TG, and apoB. The subjects also maintain health diaries, which are reviewed at each visit.
# [3] = system: subjects with mixed dyslipidemia; conditions: cited from earlier work; for reduction of LDL-C: 100 mg/day; for reduction of alkaline phosphatase: control group 4%
# LDL particle size = conditions: pattern B <25.75 nm, I 25.75-26.34 nm, A >26.34 nm; US 2010-0152295; cited from earlier work
# patients with HoFH [4] = conditions: cited from earlier work
# [5] = system: healthy volunteers with hypercholesterolemia; conditions: cited from earlier work
# patients with HeFH [6] = conditions: cited from earlier work
# [7] = system: patients with hypercholesterolemia; conditions: week 12; sc 50, 100, 150 mg twice monthly or 200, 300 mg once monthly; cited from earlier work
# apoB mRNA = conditions: HepG2, Hep3B, human and cynomolgus monkey primary hepatocytes; cited from earlier work
# patients with HoFH [8] = conditions: added to maximally tolerated lipid lowering medications in HoFH patients; cited from earlier work
# [9] = in vivo, cited from earlier work
# [10] = system: patients with HoFH, HeFH, severe hyperlipidemia, high-risk coronary heart disease; conditions: human, in vivo; cited from earlier work
# [11] = system: hypercholesterolemic subjects; conditions: cited from earlier work
# patients with HeFH [12] = conditions: cited from earlier work; remark: listed apart in the source
# [13] = alone and in combination with atorvastatin, 8 weeks
molecule,measurement,setting,value
"CCO[C@H](COc1ccc(C(F)(F)F)cc1)CSc1ccc(OCC(=O)O)c(C)c1 [MBX-8025, (R)-2-(4-((2-ethoxy-3-(4-(trifluoromethyl)phenoxy)propyl)thio)-2-methylphenoxy)acetic acid]",EC50,[1],2 nM
same,specificity for PPARδ compared with PPARα,PPARα,> 600 fold
same,LDLR dependence of LDL-C lowering,[2],do not require an effective LDLR to lower LDL-C and improve other lipid parameters
same,"effect on TC, LDL-C, VLDL-C, TG, apoB and HDL-C",subjects with HoFH,"dose-dependent lowering of TC, LDL-C, VLDL-C, TG and apoB, and raising of HDL-C"
same,reduction of LDL-C,[3]; tertile with the highest starting LDL-C levels (187-205 mg/dL),35%
same,reduction of LDL-C,[3]; total population treated,22%
same,decrease of LDL-S/VS,[3]; 8 weeks,40-48%
same,increase of LDL-L,[3]; 8 weeks,34-44%
same,reduction of apoB 100 compared to placebo,"[3]; MBX-8025 50 or 100 mg alone and in combination with atorvastatin 20 mg, 8 weeks",20-38%
same,raising of HDL-C,[3]; [13],1-12%
same,reduction of LDL compared to placebo,[3]; [13],18-43%
same,reduction of free fatty acids compared to placebo,[3]; [13],16-28%
same,reduction of high-sensitivity C-reactive protein compared to placebo,[3]; [13],43-72%
same,reduction of non-HDL-C compared to placebo,[3]; [13],18-41%
same,reduction of triglycerides compared to placebo,[3]; [13],26-30%
same,reduction of γ-glutamyl transpeptidase,[3]; control group 3%,24-28%
same,reduction of alkaline phosphatase,[3],32-43%
same,"insulin sensitivity (HOMA-IR, fasting plasma glucose, insulin)",[3]; in vivo,increases insulin sensitivity
same,reduction of the percentage of subjects meeting the criteria for metabolic syndrome,[3]; in vivo,> 2 fold
same,safety and tolerability,[3]; in vivo,safe and generally well-tolerated
same,serum aminotransferases,[3]; in vivo,reducing serum aminotransferases
same,waist circumference and lean body mass,[3]; in vivo,trends towards a decrease in waist circumference and increase in lean body mass
same,LDL particle size pattern conversion,LDL particle size,converts LDL particle size pattern I to pattern A; and from pattern B to pattern I or A
"CC(C)c1c(C(=O)Nc2ccccc2)c(-c2ccccc2)c(-c2ccc(F)cc2)n1CC[C@@H](O)C[C@@H](O)CC(=O)O [atorvastatin, reference compound]",decrease of LDL-L,[3]; 8 weeks,30%
same,decrease of LDL-S/VS,[3]; 8 weeks,25%
same,increase of γ-glutamyl transpeptidase,[3]; 8 weeks,2%
same,reduction of alkaline phosphatase,[3],6%
"O=C(NC1CCN(CCCCC2(C(=O)NCC(F)(F)F)c3ccccc3-c3ccccc32)CC1)c1ccccc1-c1ccc(C(F)(F)F)cc1 [lomitapide, N-(2,2,2-trifluoroethyl)-9-(4-(4-(4′-(trifluoromethyl)-[1,1′-biphenyl]-2-ylcarboxamido)piperidin-1-yl)butyl)-9H-fluorene-9-carboxamide]",patients reporting gastrointestinal adverse reactions,"patients with HoFH [4]; 27 of 29 patients, Phase 3 trial",93%
same,"patients reporting vomiting, dyspepsia and abdominal pain (each)",patients with HoFH [4]; AEs reported by 8 or more of 29 patients,≥ 28%
same,patients reporting diarrhea,"patients with HoFH [4]; Phase 3 trial, 29 patients",79%
same,patients reporting nausea,"patients with HoFH [4]; Phase 3 trial, 29 patients",65%
same,patients who discontinued the trial for AEs,patients with HoFH [4]; of the 29 patients,Five
same,reduction of LDL-C,[5],up to 65%
Alirocumab: anti-PCSK9 antibody,reduction in LDL-C,patients with HeFH [6]; 150 mg/2 weeks sc,68%
same,reduction in LDL-C,patients with HeFH [6]; 150 mg/4 weeks sc,29%
same,tolerability,patients with HeFH [6]; in vivo,well tolerated
Bococizumab: anti-PCSK9 antibody,effect on LDL-C,[7],significant reductions in LDL-C at week 12
mipomersen,"effect on apoB mRNA, protein, and secreted protein",apoB mRNA,"selectively reduced apoB mRNA, protein, and secreted protein in a concentration- and time-dependent manner"
same,reduction of LDL-C,patients with HoFH [8],25%
same,absorption time to maximum concentration,[9]; sc,3 to 4 h
same,distribution half-life,[9]; sc,2 to 5 h
same,elimination half-life,[9]; sc,1-2 months
same,time to steady-state plasma trough,[9],≤ 6 months
same,alanine aminotransferase ≧3× upper limit of normal,[10],10%
same,aspartate aminotransferase ≧3× upper limit of normal,[10],16%
same,"flu-like symptoms (such as fatigue, fever, and chills)",[10],30%
same,injection site reactions,[10],84%
same,patients who discontinued for an adverse event or serious adverse event,[10],18%
same,patients who discontinued for other reasons,[10],4%
same,patients who discontinued for patient withdrawal,[10],6%
B1,reduction of LDL-C levels,[11],more than 50%
same,effect on LDL-C relative to placebo,patients with HeFH [12]; 140 mg every 2 weeks or 420 mg every month sc,Significant reductions in LDL-C
same,muscle-related AEs,patients with HeFH [12]; in vivo,5%
same,nasopharyngitis,patients with HeFH [12]; in vivo,9%
same,tolerability,patients with HeFH [12]; in vivo,well tolerated
